Assay results: US10391070B2, “Compositions and methods for treating neurological diseases or injury” (MUSC FOUNDATION FOR RESEARCH DEVELOPMENT, priority 2012, dated 2019)

Experiments:
HO-1 = experiment: qRT-PCR of antioxidant response gene HO-1; assay type: cell-based, mouse; settings: HT22, 10 mM glutamate 16 hrs, relative to glutamate only
Experimental: HT22 cells were seeded onto cell culture treated 6-well plates at 3.0×10^5 cells per well in 2 mL of medium and maintained at 37° C. in 5% CO2 overnight prior to the initiation of experimental treatments. Cells were subsequently treated with 1 mL of medium containing glutamate (monosodium glutamate, Sigma-Aldritch, 1 M stock concentration in media, to achieve a final concentration of 10 mM) plus inhibitors (stock in DMSO) and maintained at 37° C. in 5% CO2. After 16 hrs, the media was collected and the cells harvested by trypsanization. After centrifugation, pelleted cells were washed with cold Hanks' Balanced Salt Solution (HBSS Ca^2+/Mg^2+ Free; Invitrogen; KCl 5.33 mM, KH2PO4 0.441 mM, NaHCO3 4.17 mM, NaCl 137.93 mM, Na2HPO4 0.338 mM, D-Glucose 5.56 mM), qRT-PCR was used to detect HO-1, NQO-1, and PGAM5 mRNAs in the HT22 cells. […] Therefore β2-microglobulin was used as a reference gene (Barrionuevo and Burggren, 1999). HT22 cells were cultured as described for 16 hrs. Total RNAs were extracted using the RNEasy kit (Qiagen), and transcripts of interest were amplified by PCR using the 1-step Syber Green qRT-PCR kit (Quanta) and the following specific primers (Harvard PrimerBank; Integrated DNA Technologies): HO-1, 5′-[…]-3′ (SEQ ID NO:1) and 5′-[…]-3′ (SEQ ID NO:2); PGAM5, 5′-[…]-3′ (SEQ ID NO:3) and 5′-[…]-3′ (SEQ ID NO:4); NQO-1, 5′-[…]-3′ (SEQ ID NO:5) and 5′-[…]-3′ (SEQ ID NO:6); and β2-microglobulin, 5′-[…]-3′ (SEQ ID NO:7) and 5′-[…]-3′ (SEQ ID NO:8). Linearity of the primers was verified before use, and fold changes were calculated as previously described using the Livak method (Barrionuevo and Burggren, 1999).

PGAM5 = experiment: Western blot, PGAM5 cleavage; assay type: cell-based, mouse; settings: HT22, glutamate
Experimental: HT-22 cells were cultured and treated as described above for the qRT-PCR experiments. After 16 hrs, the media was collected and the cells harvested by trypsanization. After centrifugation, pelleted cells were washed with cold HBSS Ca^2+/Mg^2+ Free, followed by lysis with a low salt lysis buffer (50 mM Tris-HCl, pH 7.4, 150 mM NaCl, 10% glycerol, 0.5 Triton X-100, 1× protease and phosphatase inhibitor cocktail) for 30 min, followed by a 15-s sonication pulse at 30 W. For Western blot analysis, the cell lysates were denatured with LDS loading buffer (Invitrogen) and run on Nupage 4-12% Tris-glysine gradient gels (Invitrogen) after centrifugation. Phosphorylated Drp1 (Ser637) (Cell Signaling) and total Drp1 (C5) (Santa Cruz), PGAM5 (K16) (Santa Cruz Biotechnology), Actin (Sigma-Aldritch) and alpha-Tubulin (Santa Cruz Biotechnology) were assessed with primary antibody, followed by rabbit, mouse, or goat IgG-HRP secondary antibody. The blot was developed using Pierce Thermo Dura-ECL reagent (Thermo-Fisher) and visualized using an ImageQuant LAS 4000 (GE). Digital images of membranes were quantified by computer-assisted densitometry using Image J 1.42q (National Institutes of Health, MD).

PTZ-induced seizures = experiment: PTZ-induced seizure (swim activity) model in zebrafish larvae; assay type: in vivo, zebrafish (Danio rerio)

With `O=C1C=C(NCc2ccccc2)C(=O)c2ccccc21` [Compound 2j, 2-(benzylamino)naphthalene-1,4-dione] the HO-1 gene expression (HO-1) was “significantly decreased HO-1 expression” and the “increase in lower band (cleavage product) of PGAM5” value (“increase in lower band” below) (PGAM5; 125 nM) was “completely attenuated”.
With `O=C1C=C(NCc2cccc(Cl)c2)C(=O)c2ccccc21` [Compound 2q, 2-((3-chlorobenzyl)amino)naphthalene-1,4-dione] the HO-1 gene expression (HO-1) was “significantly decreased HO-1 expression”, the “increase in lower band” value (PGAM5; 125 nM) was “completely attenuated” and the “fold reduction of PTZ-induced swim activity (distance traveled)” value (PTZ-induced seizures; 7 dpf zebrafish, 1 h pretreatment, 15 mM PTZ, 2j 10 μM, 2h 20 μM, 2q 20 μM, 3n 8 μM) was “more than two fold”.
With `CC1=CC(=O)c2ccccc2C1=O` [VK3, menadione, reference compound] the “fold reduction of distance traveled from PTZ levels” value (PTZ-induced seizures; 7 dpf zebrafish, 1.5 μM) was 0.5 fold, the “fold reduction of PTZ-induced swim behavior” value (PTZ-induced seizures; 7 dpf zebrafish, 3 μM) was 2 fold and the “fold reduction of distance traveled after PTZ treatment” value (PTZ-induced seizures; 7 dpf zebrafish, 6 μM, 1 h pretreatment, 15 mM PTZ) was “more than 4 fold”. For the same compound, the “concentrations reducing seizure activity” value (PTZ-induced seizures; PTZ-treated 6 dpf zebrafish, dose dependent) was 1.5 to 6 µM.
For menaquinones [VK2, reference compound], the HO-1 gene expression (HO-1) was “significantly decreased HO-1 expression”, the “increase in lower band” value (PGAM5; 500 nM) was “completely attenuated” and the reduction of seizures (PTZ-induced seizures; PTZ-treated 6 dpf zebrafish, up to 100 mM) was “neither were found to reduce seizures”.
